These results are taken from patent US20210179577A1, “AROMATIC SULFONAMIDE DERIVATIVES FOR THE TREATMENT OF ISCHEMIC STROKE” (Bayer Aktiengesellschaft, priority 2017, published 2021).

Where “and” joins values, the source holds several entries; their conditions need not be identical. Equal values may be shown once.

Common to all, as to format: cell-based
One test concerns the target T1, hP2X4 (Homo sapiens, UniProt Q99571).
T1 construct: expressed in transfected cells; host or cells: HEK-293 mito-Photina, clone 2a/4
T1 sequence (Q99571 1-388): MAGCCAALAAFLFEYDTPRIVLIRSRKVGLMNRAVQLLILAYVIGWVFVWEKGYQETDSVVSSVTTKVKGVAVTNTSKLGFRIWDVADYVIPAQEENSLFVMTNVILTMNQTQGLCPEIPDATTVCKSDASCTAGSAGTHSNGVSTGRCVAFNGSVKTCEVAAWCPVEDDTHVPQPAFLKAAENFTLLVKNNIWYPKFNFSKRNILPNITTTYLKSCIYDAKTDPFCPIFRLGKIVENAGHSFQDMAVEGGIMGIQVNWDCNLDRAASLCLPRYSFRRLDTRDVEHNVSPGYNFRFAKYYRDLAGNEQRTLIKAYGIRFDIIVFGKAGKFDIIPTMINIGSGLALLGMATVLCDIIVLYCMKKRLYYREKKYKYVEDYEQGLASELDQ
Briefly: Human P2X4 HEK Cell Electrophysiology Assay B (QPatch). As to conditions: ATP 5 microM, -90 mV; read-out: Human P2X4 HEK Cells (QPatch Electrophysiology) avg IC50. The method, then:
Cell culture conditions: HEK-293 mito-Photina pcDNA3(neo-)/pPURO N/pcDNA3_P2RX4, clone 2a/4 (HEK-293 mito-Photina/hP2RX4) cells were cultured in EMEM Minimum Essential Medium Eagle with Earl's salts Balanced Salt Solution (BioWhittaker cat. BE12-125F) supplemented with 5 mL of 200 mM Ultraglutaminel (BioWhittaker cat. BE17-605E/U1), 5 mL of 100× Penicillin/Streptomycin (BioWhittaker cat. DE17-602E; final concentration 1%), 4 mL of 50 mg/mL G418 (Sigma cat. G8168-100 mL; final concentration 400 μg/mL), 10 μL of 10 mg/mL Puromicin (InvivoGen cat. ant-pr-1; final concentration 0.2 μg/mL) and 50 mL of Fetal Bovine Serum (Sigma cat. F7524; final concentration 10%).
Experimentalprotocol: HEK-293 cell lines are seeded 72 or 96 hours before experiment, at a concentration of 5 or 2.5 million cells, respectively onto a T225 flask. Just before the experiments cells are washed twice with D-PBS w/o Ca2+/Mg2+(Euroclone cat. ECB4004L) and detached from the flask with trypsin-EDTA (Sigma, cat. T4174 diluted 1/10). Cells are then re-suspended in the suspension solution: 25 mL EX-CELL ACF CHO medium (Sigma, cat. C5467); 0.625 mL HEPES (BioWhittaker, cat. BE17-737E); 0.25 mL of 100× Penicillin/Streptomycin (BioWhittaker, cat. DE17-602E), 0.1 mL of Soybean Trypsin Inhibitor 10 mg/mL (Sigma, cat. T6522) and placed on the QPatch 16X.
Compound preparation and storage: Compound stock solutions (10 mM; 100% DMSO; stored at −20° C.) were used. Fresh solutions from stock (1 or 3 mM, 100% DMSO) were prepared just before the experiments (0.1% final DMSO concentration).
Patch clamp analysis with QPatch16X (FIG. 1): Standard whole-cell voltage clamp experiments are performed at room temperature using the multihole technology.
For the voltage clamp experiments on hP2X4, data are sampled at 2 KHz. After establishment of the seal and the passage in the whole cell configuration, the cells are held at −90 mV and the hP2X4 current is evoked by the agonist in the absence (vehicle period, i.e. 0.1% DMSO) or in the presence of the compound under investigation at increasing concentrations; see the application protocol in FIG. 1.
Output: the maximum inward current induced by the agonist (ATP 5 microM).
The intracellular solution contained (mM) 135 CsF, 10 NaCl, 1 EGTA, 10 HEPES (pH 7.2 with CsOH) whereas the extracellular solution (mM) 145 NaCl, 4 KCl, 0.5 MgCl2, 1 CaCl2, […], 10 Glucose (pH 7.4 with NaOH).
For data collection, the Sophion software was used and the analysis was performed off-line using Excel and GraphPad Prism.
When possible, i.e. when the % of inhibition with the highest concentration tested was more than 50%, the dose-response curves data were fitted with the following equation:
[X is log of concentration; Y is normalized response (100% down to 0%, decreasing as X increases); Log IC50 same log units as X; HillSlope is unitless slope factor or hill slope]
A general note: Patch clamp records ionic current or voltage across a cell membrane.

In another test the target is T2, human P2X4 (Homo sapiens, UniProt Q99571).
T2 sequence (Q99571 1-388): T1 sequence (Q99571 1-388)
In words: Human P2X4 HEK Cell FLIPR Assay. On the set-up: expressed in transfected cells; host or cells: HEK293. As to conditions: HEK293 cells, agonist Bz-ATP at EC80; for Emax: percentage of maximal inhibition, read-out: Human P2X4 HEK Cells (FLIPR Assay) avg Efficacy. The protocol: HEK293 cells stably expressing human P2X4 were plated in poly-D-lysine-coated 384-well plates at a seeding density of 30000 cells/well and incubated overnight. P2X4 function was assessed by measuring intracellular calcium changes using the calcium-chelating dye Fluo8-AM (Molecular Devices) on a fluorescent imaging plate reader (FLEX/FLIPR station; Molecular Devices). On the day of the assay, the medium was removed and the cells were incubated for 30 min at 37° C. and 5% CO2 in 30 μL of dye buffer (Hank's balanced salt solution, 10 mM HEPES, 1.8 mM CaCl2, 1 mM MgCl2, 2 mM probenecid, 5 mM D-glucose monohydrate, 5 μM Fluo8-AM, pH=7.4). Compounds diluted in probenecid buffer (Hank's balanced salt solution, 10 mM HEPES, 1.8 mM CaCl2, 1 mM MgCl2, 2 mM probenecid, 5 mM D-glucose monohydrate, pH=7.4) were added in a volume of 10 μL and allowed to incubate for 30 min at room temperature. The final assay DMSO concentration was 0.5%. The agonist, Bz-ATP (Tocris), was added in a volume of 10 μL at a concentration representing the EC80 value. The EC80 value of Bz-ATP was determined each assay day prior to compound profiling. The fluorescence was measured for an interval of 120 sec at 2 sec intervals. The excitation and emission wavelengths used to monitor fluorescence were 470-495 nm and 515-575 nm, respectively. The data was analyzed based on the increase in peak relative fluorescence units (RFU) compared to the basal fluorescence and the data was normalized to the agonist control. The compounds were tested in triplicates per plate and mean values were plotted in Excel XL-Fit to determine IC50 values, percentage of maximal inhibition and the Hill coefficients.

A further test has as its target T3, endogenous P2X4 channels (Homo sapiens, UniProt Q99571).
T3 construct: measure calcium influx through endogenous P2X4 channels into primary human monocytes; endogenous in cells; host or cells: primary human monocytes isolated from donor PBMCs
T3 sequence (Q99571 1-388): T1 sequence (Q99571 1-388)
Briefly: Human Monocyte P2X4 Assay (FLIPR). As to conditions: primary human monocytes, 3 μM BzATP, one value per donor; for Emax: read-out: Human P2X4 Monocytes (FLIPR Assay) Efficacy for different donors; for IC50: read-out: Human P2X4 Monocytes (FLIPR Assay) IC50 for different donors. The protocol: The principle of the assay is to measure calcium influx through endogenous P2X4 channels into primary human monocytes, following activation by 2′,3′-O-(4-benzoyl-benzoyl)-ATP (Bz-ATP). Intracellular calcium concentration changes were measured with a Flipr™ (Molecular Devices) device using a calcium sensitive dye (Fluo-8). In primary monocytes P2X4 is located at the lysosome membrane, therefore exocytosis has to be triggered to expose P2X4 at the cellular membrane.
Human peripheral blood mononuclear cells (PBMCs) from anticoagulated blood (blood cells, BC) were isolated via density gradient centrifugation. Whole blood was diluted 1:3 with PBS. Samples of 30 mL were layered carefully on top of 15 mL Biocoll (BIOCHROM) in 50 mL centrifuge tubes (Falcon). Tubes were centrifuged at 914×g for 25 min at RT without brake. The PBMC layer was removed with a 10 mL pipette and transferred into tubes with ice-cold PBS in a total volume of 50 mL. Cells were washed twice by pelleting at 300×g at 4° C., for 10 min and for 5 min respectively. PBMCs were re-suspended in 10 mL medium (X-vivo, Biozym Scientific) and counted in a Neubauer chamber.
Monocytes were isolated by negative selection using the Monocyte isolation kit II from Miltenyi (#130-091-153) according to the instructions. Isolation should be done fast and cells and solutions should be kept on ice at any time. PBMCs in batches of 10exp8 cells were pelleted (300×g, 10 min) and re-suspended with 300 μL MACS buffer in a 50 mL Falcon tube. FcR Blocking reagent (100 μl) and Biotin-Ab (100 μl) were added, mixed and incubated on ice for 10 min. MACS buffer (300 μL) and anti-Biotin Micro-beads (100 μL) were added, mixed and incubated on ice for 15 min. Cells were washed by pelleting (300×g for 10 min) and re-suspended in 500 μL MACS buffer. For each batch one separation column was placed in the MACS separator and rinsed with 3 mL MACS buffer. The cell suspension was added to the column, followed by 3×3 mL MACS buffer for washing, and the eluent containing the monocytes was collected. Cells were pelleted (300×g for 10 min), re-suspended in X-vivo medium and counted. Monocytes were seeded into fibronectin-coated micro-plates (384-well, black, flat transparent bottom; Corning #3848) at a density of 30,000 cells/well in 50 μL, and cultivated over night (37° C., 5% CO2).
Test substances were dissolved in 100% DMSO at a stock concentration of 10 mM and stored at −20° C. in aliquots. Serial dilutions (2×) were prepared in DMSO and diluted 500× with assay buffer to generate the antagonist plate. In the Flipr measurement, 10 μL per well were transferred (4× dilution) and a final top concentrations of 5 μM and 0.05% DMSO were obtained in the assay. Agonist BzATP was stored at 10 mM in aliquots and diluted to an intermediate concentration of 15 μM to generate the agonist plate. In the Flipr measurement, 10 μL per well were transferred (5× dilution) so that a final assay concentration of 3 μM was obtained.
For the experiment, the medium of the cell plate was discarded manually and 70 μL/well loading buffer was added and incubated for 1 h (37° C., 5% CO2). Loading buffer contained HBSS (w/o calcium/magnesium), 10 mM Hepes pH 7.4, 5 μM Fluo-8 (AM) (Tebu-bio) and 50 mM methylamine (Sigma) to trigger exocytosis. Loading buffer was discarded manually and 30 μL/well low-calcium assay buffer (5 mM KCl, 145 mM NaCl, 0.5 mM CaCl2), 13 mM glucose, 10 mM Hepes pH 7.4) was added. The antagonist plate was transferred (10 μL/well) and after 15 min at RT the agonist plate (10 μL/well) was transferred.
Agonist addition was recorded for 240 seconds after a 10 second baseline. For analysis, a baseline correction was applied, and the maximum of the curve was extracted. Data were normalized towards 0% inhibition (signal at 3 μM BzATP) and 100% inhibition (absence of BzATP stimulation) and fitted with a four-parameter sigmoidal inhibition curve using Prism Graph Pad to obtain IC50 values.

As for `NS(=O)(=O)c1cc(NC(=O)Cc2ccccc2Cl)ccc1-c1cncc(C(F)(F)F)c1` [Example 331, 2-(2-Chlorophenyl)-N-{3-sulfamoyl-4-[5-(trifluoromethyl)pyridin-3-yl]phenyl}-acetamide], the IC50 – broadly, the concentration needed to halve the response being measured – at hP2X4 came to 155 nM; on human P2X4 it was 25 nM.
Regarding `NS(=O)(=O)c1cc(NC(=O)Cc2ccccc2F)cnc1-c1cnn(C(F)F)c1` [Example 321, N-{6-[1-(Difluoromethyl)-1H-pyrazol-4-yl]-5-sulfamoylpyridin-3-yl}-2-(2-fluorophenyl)acetamide], the half-inhibitory concentration (IC50) on hP2X4 came out at 227 nM; on human P2X4, 87 nM.
For `NS(=O)(=O)c1cc(NC(=O)Cc2ccccc2Cl)cnc1-n1cc(Cl)cn1` [Example 387, 2-(2-Chlorophenyl)-N-[6-(4-chloro-1H-pyrazol-1-yl)-5-sulfamoylpyridin-3-yl]acetamide], on endogenous P2X4 channels, the Emax worked out at 35%; the concentration for half-maximal inhibition (IC50) was 122 nM and 104 nM. Further, the IC50 at human P2X4 stood at 34 nM.
`NS(=O)(=O)c1cc(NC(=O)Cc2ccccc2F)ccc1-n1cc(C(F)(F)F)cn1` [Example 20, 2-(2-Fluorophenyl)-N-{3-sulfamoyl-4-[4-(trifluoromethyl)-1H-pyrazol-1-yl]phenyl}-acetamide]: the results for the IC50 at hP2X4 and on human P2X4 were 195 nM and 140 nM, respectively.
Regarding `NS(=O)(=O)c1cc(NC(=O)Cc2ccccc2Cl)ccc1-n1cnc(Cl)n1` [Example 24, 2-(2-Chlorophenyl)-N-[4-(3-chloro-1H-1,2,4-triazol-1-yl)-3-sulfamoylphenyl]-acetamide], at endogenous P2X4 channels, the Emax was 79%; the concentration for half-maximal inhibition (IC50) was 141 nM and 34 nM and 91 nM. The IC50 at human P2X4 worked out at 45 nM.
Turning to `Cn1cc(-c2ccc(NC(=O)Cc3ccccc3Cl)cc2S(N)(=O)=O)cn1` [Example 360, 2-(2-Chlorophenyl)-N-[4-(1-methyl-1H-pyrazol-4-yl)-3-sulfamoylphenyl]acetamide], the results for the IC50 at hP2X4 and on human P2X4 were 205 nM and 132 nM, respectively.
With `NS(=O)(=O)c1cc(NC(=O)Cc2ccccc2Cl)ccc1-n1cc(Br)cn1` [Example 28, N-[4-(4-Bromo-1H-pyrazol-1-yl)-3-sulfamoylphenyl]-2-(2-chlorophenyl)acetamide], the IC50 at endogenous P2X4 channels was 78 nM and 164 nM; at human P2X4, 31 nM. Also, on human P2X4, the Emax was 90%.
Take `COc1ccc(CC(=O)Nc2ccc(-n3cc(Cl)cn3)c(S(N)(=O)=O)c2)cc1` [Example 170, N-[4-(4-Chloro-1H-pyrazol-1-yl)-3-sulfamoylphenyl]-2-(4-methoxyphenyl)acetamide]: on endogenous P2X4 channels, the Emax is 60%; the half-maximal inhibitory concentration (IC50) was 303 nM and 183 nM and 110 nM. Besides, on human P2X4, the IC50 worked out at 126 nM and the Emax came to 70%.
